What all share (assay type): cell-based
One assay relates to HIV pseudovirus (18A-41). As to conditions: 293T cells pretreated 4 h, n=3.
Assay [1] concerns influenza pseudovirus H7N9-Fluc. Nature of the assay: microbe, parasite or virus in culture. The note with it: n=3.
For a further assay, the system named is 293T cells. Put plainly: Cellular phagocytosis of DiD-loaded lipid vesicles (nano-drugs) by 293T cells (Example II-51, Table II-29). The note with it: 293T cells pretreated 4 h, DiD lipid vesicles 2 h, n=3, untreated control 226.46 ± 1.26.
The test system of a further assay is human pancreatic β-cells. Put plainly: Insulin secretion from human islet β cells (ELISA of supernatant). As to conditions: 6 h.
The next assay has as its system Epithelial cells. Put plainly: Interaction of GFP-labelled complexes with cell membrane of epithelial cells (Example II-52, Table II-30). As to conditions: GFP-labelled complex, epithelial cells pretreated 4 hours, n=3. The procedure:
The fatty acids were combined with water-soluble small molecules to form a complex, which were labeled with GFP fluorescence to detect cell membrane fluorescence. […] After the cells were stably adhered, the water-soluble fatty acid complexes in the following table were added to the cell culture medium. […] The medium with the drug was pipetted and replaced with normal DMEM medium. […] The green fluorescence intensity was analyzed by imageJ (see Table II-30, n=3).

[2] abbreviates: 100 μM, negative value = promotes infection.

Where two headings read alike, the source gives them in different places.

For `CCC=CCC=CCC=CCC=CCC=CCCCC(=O)OCC(O)C1OC(=O)C(O)=C1O` (stereo not drawn) [Ascorbic Acid-EPA], the “Inhibition rate (%)” value in the assay on HIV pseudovirus (18A-41) (2 nM) was 72.04 ± 6.02%; with HIV pseudovirus (18A-41) (5 nM), 68.76 ± 5.79%; with HIV pseudovirus (18A-41) (10 nM), 86.46 ± 3.84%; in the assay with HIV pseudovirus (18A-41) (50 nM), 97.33 ± 5.33%; with HIV pseudovirus (18A-41) (100 nM), 98.77 ± 3.22%; in the assay with HIV pseudovirus (18A-41) (1 μM), -82.83 ± 7.59%. Moreover, the entries for the “Inhibition rate (%)” value in the assay with HIV pseudovirus (18A-41) (10 μM), in the assay on HIV pseudovirus (18A-41) (50 μM) and in the assay on HIV pseudovirus (18A-41) (setting [2]) were -64.54 ± 5.62%, 80.74 ± 4.76% and 82.84 ± 4.75%, respectively.
As for `CCCCCCCC/C=C\CCCCCCCC(=O)OCCO` [Ethylene glycol-OA], the “Inhibition rate (%)” value was 82.74 ± 5.06% with HIV pseudovirus (18A-41) (2 nM); 83.09 ± 3.25% with HIV pseudovirus (18A-41) (5 nM); 89.89 ± 4.06% with HIV pseudovirus (18A-41) (10 nM); 94.33 ± 6.32% in the assay with HIV pseudovirus (18A-41) (50 nM); 93.46 ± 3.23% in the assay with HIV pseudovirus (18A-41) (100 nM); -92.33 ± 2.66% in the assay on HIV pseudovirus (18A-41) (1 μM). The results for the “Inhibition rate (%)” value in the assay with HIV pseudovirus (18A-41) (10 μM), in the assay with HIV pseudovirus (18A-41) (50 μM) and with HIV pseudovirus (18A-41) (setting [2]) were -84.04 ± 6.24%, 79.46 ± 8.46% and 86.47 ± 5.86%, respectively.
As to `CCCCCCCCCC(=O)O` [N-decanoic acid], the “Inhibition rate (%)” value in assay [1] (2 nM) was 35.04 ± 2.04%; in assay [1] (5 nM) it was 31.86 ± 2.23%; in assay [1] (10 nM) it was 66.11 ± 2.33%; in assay [1] (50 nM), 75.38 ± 2.03%; in assay [1] (100 nM), 75.54 ± 4.00%; in assay [1] (1 μM), -32.33 ± 1.56%. In addition, the “Inhibition rate (%)” value is listed as -54.38 ± 4.38% in assay [1] (10 μM), 41.08 ± 4.08% in assay [1] (50 μM) and 47.98 ± 3.09% in assay [1] (100 μM). In addition, the Fluorescence intensity in the assay with 293T cells (2 nM) was determined as 131.26 ± 8.63; with 293T cells (5 nM), 114.00 ± 11.2; in the assay with 293T cells (10 nM), 94.34 ± 7.54; in the assay on 293T cells (50 nM), 96.63 ± 6.99; with 293T cells (100 nM) it was 143.94 ± 13.26; in the assay with 293T cells (1 uM), 237.62 ± 17.5. The Fluorescence intensity with 293T cells (10 uM) is reported as 147.74 ± 14.23; with 293T cells (50 uM) it was 135.74 ± 15.2; in the assay with 293T cells (100 uM), 127.34 ± 12.22.
With `CCCCCCCCCCCCCCCCCCCC(=O)OC(C)C(N)C(=O)O` (stereo not drawn) [Thr-arachidic acid], the “Insulin” value with human pancreatic β-cells (2 nM) is 0.32 ng/mL; in the assay with human pancreatic β-cells (5 nM) it was 0.31 ng/mL; in the assay on human pancreatic β-cells (10 nM), 0.43 ng/mL; in the assay on human pancreatic β-cells (50 nM) it was 0.51 ng/mL; with human pancreatic β-cells (50 μM), 1.46 ng/mL; with human pancreatic β-cells (100 μM), 1.42 ng/mL. Further, the Mean fluorescence intensity stood at 109.4 ± 3.7 in the assay on Epithelial cells (0 Hours after medium replaced); 104.4 ± 5.4 with Epithelial cells (2 Hours after medium replaced); 91.5 ± 6.7 in the assay on Epithelial cells (4 Hours after medium replaced); 54.3 ± 7.2 in the assay on Epithelial cells (8 Hours after medium replaced); 41.4 ± 3.4 with Epithelial cells (12 Hours after medium replaced); 34.2 ± 5.2 in the assay on Epithelial cells (24 Hours after medium replaced).
As to `CCCCCC/C=C\CCCCCCCC(=O)OC(C)C(N)C(=O)O` (stereo not drawn) [Threonine-c-9-hexadecanoic acid], the “Inhibition rate (%)” value in assay [1] (2 nM) is on record as 56.47 ± 5.47%; in assay [1] (5 nM), 79.21 ± 5.22%; in assay [1] (10 nM), 60.86 ± 4.03%; in assay [1] (50 nM), 59.03 ± 1.64%; in assay [1] (100 nM), 68.64 ± 2.03%; in assay [1] (1 μM), 12.84 ± 1.03%. Besides, the “Inhibition rate (%)” value in assay [1] (10 μM) came to 34.49 ± 4.49%; in assay [1] (50 μM) it was 71.06 ± 4.08%; in assay [1] (100 μM) it was 78.34 ± 4.39%.
Turning to `Cc1c(C)c2c(c(C)c1O)CCC(C)(CCCC(C)CCCC(C)CCCC(C)C)O2` (stereo not drawn) [Vitamin-E, Vitamin E], the “Inhibition rate (%)” value with HIV pseudovirus (18A-41) (2 nM) is given as 55.66 ± 6.03%; with HIV pseudovirus (18A-41) (5 nM) it was 61.87 ± 5.06%; with HIV pseudovirus (18A-41) (10 nM), 70.04 ± 4.65%; in the assay on HIV pseudovirus (18A-41) (50 nM), 79.33 ± 5.89%; with HIV pseudovirus (18A-41) (100 nM) it was 89.99 ± 8.97%; in the assay on HIV pseudovirus (18A-41) (1 μM) it was -84.33 ± 6.36%. Besides, the “Inhibition rate (%)” value stood at 4.16 ± 0.11% in the assay on HIV pseudovirus (18A-41) (10 μM), 61.36 ± 8.64% with HIV pseudovirus (18A-41) (50 μM) and 58.98 ± 6.37% in the assay on HIV pseudovirus (18A-41) (setting [2]). The Fluorescence intensity with 293T cells (2 nM) was 100.41 ± 4.43; with 293T cells (5 nM) it was 86.35 ± 2.47; with 293T cells (10 nM) it was 67.85 ± 1.43; in the assay with 293T cells (50 nM), 46.81 ± 1.48; in the assay on 293T cells (100 nM), 22.67 ± 0.03; in the assay on 293T cells (1 uM), 417.43 ± 15.23. Further, the Fluorescence intensity with 293T cells (10 uM) came out at 217.04 ± 7.44; in the assay on 293T cells (50 uM), 87.50 ± 2.33; with 293T cells (100 uM), 92.89 ± 5.33.
In the case of Ascorbic acid-undecanedioic acid, the “Inhibition rate (%)” value in assay [1] (2 nM) was found to be 36.88 ± 5.99%; in assay [1] (5 nM) it was 70.10 ± 2.01%; in assay [1] (10 nM), 71.74 ± 5.03%; in assay [1] (50 nM) it was 67.01 ± 5.59%; in assay [1] (100 nM) it was 74.96 ± 2.33%; in assay [1] (1 μM), 32.33 ± 2.37%. Besides, the results for the “Inhibition rate (%)” value in assay [1] (10 μM), in assay [1] (50 μM) and in assay [1] (100 μM) were 44.08 ± 1.28%, 83.56 ± 4.03% and 73.01 ± 4.05%, respectively.
On to Glucosamine-n-octanoic acid, for which the “Inhibition rate (%)” value with HIV pseudovirus (18A-41) (2 nM) is 22.59 ± 6.09%; in the assay with HIV pseudovirus (18A-41) (5 nM) it was 54.47 ± 2.09%; in the assay on HIV pseudovirus (18A-41) (10 nM) it was 78.34 ± 3.66%; in the assay with HIV pseudovirus (18A-41) (50 nM), 89.33 ± 3.65%; in the assay with HIV pseudovirus (18A-41) (100 nM), 88.76 ± 4.87%; with HIV pseudovirus (18A-41) (1 μM), -62.33 ± 3.93%. For the same compound, the “Inhibition rate (%)” value is reported as -84.26 ± 6.61% with HIV pseudovirus (18A-41) (10 μM), 51.09 ± 9.38% in the assay with HIV pseudovirus (18A-41) (50 μM) and 53.68 ± 6.07% with HIV pseudovirus (18A-41) (setting [2]).
Turning to Glucose-hexadecanoic acid, the “Inhibition rate (%)” value in the assay on HIV pseudovirus (18A-41) (2 nM) is given as 50.54 ± 1.56%; in the assay with HIV pseudovirus (18A-41) (5 nM), 57.26 ± 6.09%; with HIV pseudovirus (18A-41) (10 nM) it was 86.44 ± 5.03%; in the assay on HIV pseudovirus (18A-41) (50 nM) it was 85.46 ± 3.99%; in the assay on HIV pseudovirus (18A-41) (100 nM), 89.99 ± 5.07%; in the assay on HIV pseudovirus (18A-41) (1 μM) it was -94.23 ± 9.06%. The “Inhibition rate (%)” value with HIV pseudovirus (18A-41) (10 μM) is -44.88 ± 1.03%; in the assay on HIV pseudovirus (18A-41) (50 μM), 87.59 ± 5.03%; with HIV pseudovirus (18A-41) (setting [2]), 98.87 ± 6.03%.

Values taken from US20260166162A1, “CARBON CHAIN SUBSTANCE FOR REGULATING TRANSMEMBRANE TRANSPORT AND FLUIDITY OF CELL MEMBRANES, AND PREPARATION AND USE THEREOF” (priority 2022, published 2026).
